From patent US8633232B2, “Compounds, compositions and methods of using same for modulating uric acid levels” (Ardea Biosciences, Inc., priority 2008, dated 2014)
Where a name gives a salt, the structure may show the parent alone. Values belong to the compound of their own block, whether it stands above or below them.

Assays:
[1] = test system: healthy adult male human volunteers; assay: In vivo uric acid lowering activity, multiple ascending dose placebo-controlled study
Procedure: 16 healthy male individuals, aged 18-45 years inclusive, with a body mass index (BMI) within 18-30 kg/m^2 inclusive, having provided a written informed consent, non smokers for at least 6 months, not using any drug treatment for 2 weeks before screening (2 months for enzyme-inducing drugs) except occasional Acetaminophen. The individuals were confined at the clinical site beginning the day before dose administration until 72 hours after the final dose administration on Day 17 and returned for a follow-up visit on Day 21±1.
Matching placebo capsules were supplied as size 2 gelatin capsules. Individuals were randomized to receive the same number of placebo capsules as administered to the active individuals.
Capsules (active or placebo) were administered orally with 240 mL water 30 min after a standard breakfast (morning dose) and dinner (evening dose) for 14 days.
16 individuals (8 individuals [6 active and 2 placebo] per dose group). • a. Group 1: Placebo • b. Group 2: 300 mg (3×100-mg capsules) example 1 b.i.d. • c. Group 3: 500 mg (5×100-mg capsules) example 1 b.i.d.
Blood was collected from the individuals on days 0, 3, 7, 14 and at follow-up. Serum uric levels were measured using standard automated procedures. The results are shown in the table below (uric acid levels in μmol/L).

[2] = In vitro metabolic stability in rat liver microsomes; assay type: in vitro ADME; settings: 1 uM test compound, 1 mg/mL RLM, 1 mM NADPH, 30 minute incubation at 37° C.
Procedure: (§1) In vitro metabolic stability was assessed in rat and human liver microsomes (RLM/HLM). The incubation mixer contained the following: 1 uM test compound, 1 mg/mL HLM/RLM, 100 mM potassium phosphate buffer at pH 7.4, 1 mM NADPH and 5 mM MgCl2. This mixture was preincubated for 3 min before the 30 minute incubation at 37° C. The reaction was initiated with the addition of NADPH and terminated by the addition of equal volume of acetonitrile with internal standard. Incubation samples without NADPH were used as control samples. After vortexing and centrifugation, the supernatant was injected onto LC-MS/MS for quantitation.

hURAT1 Transporter = molecular target: T1, hURAT1 Transporter (Homo sapiens, UniProt Q96S37); assay: Uric Acid Uptake Assay; assay type: cell-based; settings: HEK293/urat1 cells; C14 Uric Acid 40 μM; 10 minutes at room temperature
T1 construct: Full-length human URAT1 gene (SLC22A12) was subcloned from plasmid pCMV6-XL5
T1 sequence (Q96S37 1-553): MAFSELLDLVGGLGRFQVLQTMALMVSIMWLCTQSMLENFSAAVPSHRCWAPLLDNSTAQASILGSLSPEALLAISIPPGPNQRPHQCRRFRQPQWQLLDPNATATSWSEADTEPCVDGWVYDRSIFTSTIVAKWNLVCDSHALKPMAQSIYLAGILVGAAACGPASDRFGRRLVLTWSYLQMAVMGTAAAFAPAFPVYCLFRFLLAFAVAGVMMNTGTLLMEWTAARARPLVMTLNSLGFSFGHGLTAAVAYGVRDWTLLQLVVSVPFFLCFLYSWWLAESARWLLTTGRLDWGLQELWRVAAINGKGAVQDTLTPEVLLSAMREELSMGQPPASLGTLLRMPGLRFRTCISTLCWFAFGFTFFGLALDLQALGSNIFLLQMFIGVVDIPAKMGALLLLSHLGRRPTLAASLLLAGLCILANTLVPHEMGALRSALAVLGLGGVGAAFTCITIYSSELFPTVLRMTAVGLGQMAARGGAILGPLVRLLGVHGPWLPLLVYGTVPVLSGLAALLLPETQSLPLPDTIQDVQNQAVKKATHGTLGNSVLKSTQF
Excerpt: Creation of Stable Cell Lines Expressing hURAT1 Transporter: Full-length human URAT1 gene (SLC22A12) was subcloned from plasmid pCMV6-XL5 (Origene) into eukaryotic expression plasmid pCMV6/Neo (Origene) using Not I restriction sites. Gene sequencing confirmed the sequence of hURAT1 as outlined in Genbank (Accession #NM_144585.2). HEK293 human embryonic kidney cells (ATCC#CRL-1573) were propagated in EMEM tissue culture medium as described by ATCC in an atmosphere of 5% CO2 and 95% air. Transfections of HEK293 cells with the pCMV6/Neo/URAT1 construct were performed using L2000 transfection reagent (Invitrogen) as described by the manufacturer. After 24 h the transfected cells were split into 10 cm tissue culture plates and grown for 1 day after which the medium was replaced with fresh growth medium containing G418 (Gibco) at 0.5 mg/ml final concentration. Drug-resistant colonies were selected after approximately 8 days and then tested for ^14C-uric acid transport activity. The HEK293/urat1 cells are plated on Poly-D-Lysine Coated 96-well Plates at a density of 75,000 cells per well.
Cells were grown overnight (20-26 hours) at 37° C. in an incubator. Plates were allowed to come to room temperature and media was washed out with one wash of […] of Wash Buffer (125 mM Na Gluconate, 10 mM Hepes ph 7.3). Compound or vehicle is added in assay buffer with C14 Uric Acid for a final concentration of 40 μM Uric Acid with a specific activity of 54 mCi/mmol. Assay Buffer is 125 mM Sodium Gluconate, 4.8 mM Potassium Gluconate, 1.2 mM Potassium phosphate, monobasic, 1.2 mM magnesium sulfate, 1.3 mM Ca Gluconate, 5.6 mM Glucose, 25 mM HEPES, pH 7.3. Plates were incubated at room temperature for 10 minutes then washed 3 times with 50 μl Wash Buffer and 3 times with 250 μl Wash Buffer. Microscint 20 Scintillation Fluid was added and plates were incubated overnight at 45° C. to equilibrate. Plates are then read on the TopCount Plate Reader and an EC50 value generated. (See Enomoto et al, Nature, 2002, 417, 447-451 and Anzai et al, J. Biol. Chem., 2004, 279, 45942-45950.).
Compounds prepared as described herein, were examined according to the procedure described above and EC50 values generated. […] (N/A means data not available).

[3] = In vitro metabolic stability in human liver microsomes; assay type: in vitro ADME; settings: 1 uM test compound, 1 mg/mL HLM, 1 mM NADPH, 30 minute incubation at 37° C.
Procedure: as §1

physchem = settings: for Solubility: 22° C., 24 hours
Procedure: When it appeared the saturation point was being reached, addition was stopped, and the eppendorf vial was shaken at a constant speed of 1000 rpm at 22° C. for 24 hours. The tubes were then centrifuged for 5 minutes at 10-15,000 rpm, and checked for precipitation. Samples were diluted with acetonitrile/water, (1/1) (or iso-propyl alcohol for hexane) and analyzed by HPLC against known standards.

[4] = 300 mg b.i.d. oral, Day 3, n = 6, serum
[5] = 300 mg b.i.d. oral, Day 7, n = 6, serum
[6] = 300 mg b.i.d. oral, Day 14, n = 6, serum
[7] = 300 mg b.i.d. oral, Follow up, n = 6, serum
[8] = 500 mg b.i.d. oral, Day 7, n = 6, serum
[9] = 500 mg b.i.d. oral, Day 14, n = 6, serum
[10] = 500 mg b.i.d. oral, Follow up, n = 6, serum

Liver Microsome Stability % Remaining Rat [2]: 98 ± 0.1% | EC50 (hURAT1 Transporter): 1 to 1000 nM | Liver Microsome Stability % Remaining Human [3]: 97 ± 2%
Compound: CC(C)(Sc1nnc(Br)n1-c1ccc(C2CC2)c2ccccc12)C(=O)O [Example 3, 2-(5-Bromo-4-(4-cyclopropylnaphthalen-1-yl)-4H-1,2,4-triazol-3-ylthio)-2-methylpropanoic acid]

solubility at 24 h (physchem; 22 °C, pH 4.85, water, thermodynamic from solid, Solubility (mg/mL)): 49200 µg/mL
Compound: O=C(O)CSc1nnc(Br)n1-c1ccc(C2CC2)c2ccccc12 [Example 104, Sodium 2-(5-bromo-4-(4-cyclopropylnaphthalen-1-yl)-4H-1,2,4-triazol-3-ylthio)acetate]

Solubility (physchem; Acetone): 260 µg/mL | Solubility (physchem; DMSO): ~54000 µg/mL | Solubility (physchem; EtOAc): 55 µg/mL | Solubility (physchem; Ethanol): 9100 µg/mL | Solubility (physchem; IPA): 1600 µg/mL | Solubility (physchem; PEG-400): 2400 µg/mL
Compound: O=C(O)CSc1nnc(Br)n1-c1ccc(C2CC2)c2ccccc12 [Piperazine salt, 2-(5-bromo-4-(4-cyclopropylnaphthalen-1-yl)-4H-1,2,4-triazol-3-ylthio)acetate]

EC50 (hURAT1 Transporter): > 30000 nM
Compound: CCOC(=O)C(C)(C)Sc1nnc(N)n1-c1ccc(C2CC2)c2ccccc12 [ethyl 2-(5-amino-4-(4-cyclopropylnaphthalen-1-yl)-4H-1,2,4-triazol-3-ylthio)-2-methylpropanoate]

EC50 (hURAT1 Transporter): 1 to 1000 nM
Compound: CCOC(=O)C(C)(C)Sc1nnc(Br)n1-c1ccc(C2CC2)c2ccccc12 [ethyl 2-(5-bromo-4-(4-cyclopropylnaphthalen-1-yl)-4H-1,2,4-triazol-3-ylthio)-2-methylpropanoate]

EC50 (hURAT1 Transporter): 1000 to 30000 nM
Compound: CCOC(=O)CCSc1nnc(Br)n1-c1ccc(C2CC2)c2ccccc12 [ethyl 3-(5-bromo-4-(4-cyclopropylnaphthalen-1-yl)-4H-1,2,4-triazol-3-ylthio)propanoate]

Continued, compound first:

Compound: O=C(CSc1nnc(Br)n1-c1ccc(C2CC2)c2ccccc12)Nc1ccc(C(=O)[O-])cc1Cl.[K+] [4-(2-(5-bromo-4-(4-cyclopropylnaphthalen-1-yl)-4H-1,2,4-triazol-3-ylthio)acetamido)-3-chlorobenzoic acid, potassium salt]
Uric acid (μmol/L) MEAN [1, 4]: -100.3229 µmol/L | Uric acid (μmol/L) MEDIAN [1, 4]: -101.4134 µmol/L | Uric acid (μmol/L) MEAN [1, 5]: -126.2959 µmol/L | Uric acid (μmol/L) MEDIAN [1, 5]: -119.8522 µmol/L | Uric acid (μmol/L) MEAN [1, 6]: -121.2401 µmol/L | Uric acid (μmol/L) MEDIAN [1, 6]: -104.9822 µmol/L | Uric acid (μmol/L) MEAN [1, 7]: -2.2801 µmol/L | Uric acid (μmol/L) MEDIAN [1, 7]: 0.8922 µmol/L | Uric acid (μmol/L) MEDIAN ([1]; 500 mg b.i.d. oral, Day 3, n = 6, serum): -112.1198 µmol/L | Uric acid (μmol/L) MEAN [1, 8]: -127.6837 µmol/L | Uric acid (μmol/L) MEDIAN [1, 8]: -144.2390 µmol/L | Uric acid (μmol/L) MEAN [1, 9]: -111.8224 µmol/L | Uric acid (μmol/L) MEDIAN [1, 9]: -124.9080 µmol/L | Uric acid (μmol/L) MEAN [1, 10]: 27.2617 µmol/L | Uric acid (μmol/L) MEDIAN [1, 10]: 27.3608 µmol/L

Compound: CCOC(=O)CSc1nnc(C(F)(F)F)n1-c1c(C)cc(C)c2c1CCCC2 [ethyl 2-(4-(2,4-dimethyl-5,6,7,8-tetrahydronaphthalen-1-yl)-5-(trifluoromethyl)-4H-1,2,4-triazol-3-ylthio)acetate]
EC50 (hURAT1 Transporter): > 30000 nM

Compound: CCOC(=O)CSc1nncn1-c1ccc(C)c2ccc(C)cc12 [ethyl 2-(4-(4,7-dimethylnaphthalen-1-yl)-4H-1,2,4-triazol-3-ylthio)acetate]
EC50 (hURAT1 Transporter): 1000 to 30000 nM

Compound: CCOC(=O)CSc1nnc(C(F)F)n1-c1ccc(CC)c2ccccc12 [ethyl 2-(5-(difluoromethyl)-4-(4-ethylnaphthalen-1-yl)-4H-1,2,4-triazol-3-ylthio)acetate]
EC50 (hURAT1 Transporter): > 30000 nM

Compound: CCOC(=O)CSc1nnc(CF)n1-c1ccc(C)c2c1CCCC2 [ethyl 2-(5-(fluoromethyl)-4-(4-methyl-5,6,7,8-tetrahydronaphthalen-1-yl)-4H-1,2,4-triazol-3-ylthio)acetate]
EC50 (hURAT1 Transporter): 1000 to 30000 nM

Compound: CCOC(=O)CCSc1nnc(N)n1-c1ccc(C2CC2)c2ccccc12 [ethyl 3-(5-amino-4-(4-cyclopropylnaphthalen-1-yl)-4H-1,2,4-triazol-3-ylthio)propanoate]
EC50 (hURAT1 Transporter): 1000 to 30000 nM
